Measured values reported in patent publication US20100184803A1, “Treatment of Lysosomal Storage Diseases” (priority 2007, published 2010).
“Also recorded” adds a separate entry of the source.

Experiments:
UCH-L1 [1] = test: Total amount and turnover of UCH-L1 in SH-SY5Y cells (pulse-chase, not shown); format: cell-based
UCH-L1 [2] = test: Membrane association of UCH-L1 in SH-SY5Y cells (membrane fractionation, 2D electrophoresis, Western blotting); format: cell-based; conditions: compared to cells treated with DMSO
Protocol: Membrane fractionation: Cells were harvested by scraping and washed with PBS. Cell pellet was suspended in lysis buffer (50 mM Tris-HCl, 1 mM EDTA) supplemented with protease inhibitor cocktail (Sigma) and homogenized by passing through 26G needles 10 times. Suspension was clarified by spinning at 600 g for 5 minutes. Clarified suspension was ultracentrifuged at 100,000 g for 2 hours and separated into membrane and cytosol. Membrane fraction was washed with washing buffer (50 mM Tris-HCl, 1 mM EDTA 1 M NaCl), and pelleted each time with bench-top centrifuge.
2D electrophoresis: For the isolation of total cellular protein, cultured SH-SY5Y cells maintained as described above were rinsed with ice-cold PBS. Cells were lysed in 1 ml dSDS buffer (50 mM Tris-HCl, pH 8.0 0.1% SDS) supplemented with protease inhibitor cocktail. Lysates were boiled for 3 min, and were treated with Dnase and Rnase as described. […]
Western Blotting: Following transfer of SDS gels onto NC membrane, all membranes were blocked with 5% non-fat milk in TBST (50 mM Tris-HCl pH 7.4, 150 mM NaCl, 0.1% Tween 20), and incubated with primary antibody overnight with 1% BSA in TBST, washed three times with TBST, and incubated with horseradish peroxidase-conjugated secondary antibody for 1 hour (Promega). Bound antibodies were detected using enhanced chemiluminascence (NEM).

With `COC(=O)[C@H](CCSC)NC(=O)c1ccc(NC[C@@H](N)CS)cc1-c1ccccc1` [FTI-277] the “total amount of UCH-L1” value (UCH-L1 [1]) was “reduced”, the “rate of turnover of UCH-L1” value (UCH-L1 [1]; pulse-chase experiment not shown) was “increased” and the “amount of cytosolic UCH-L1” value (UCH-L1 [2]) was “without affecting”. The “amount of membrane bound UCH-L1 (membrane-associated, farnesylated species)” value (UCH-L1 [2]) was “significant decrease; also recorded: decreased; also recorded: reducing”.
